Laboratory results published in patent publication US12085575B2, “Compositions and methods for detecting proteinopathies” (BOARD OF SUPERVISORS OF LOUISIANA STATE UNIVERSITY AND …, priority 2011, dated 2024).
Residues, ends and D or L forms follow the SMILES beside them. *: point of attachment. Cbz = O=C(OCc1ccccc1)*

System: Mfn2
Assay: Mfn2 modification and degradation in A-T/LV shRNA cells treated with mitochondrial depolarizing agents
Assay type: cell-based, human
Conditions: ISG15-silenced A-T cells; CCCP 25 uM with MG132 or Bafl 100 nM, 24 hr
Protocol: Immunoblotting Analysis of Mitochondrial Proteins—Mitochondria were isolated from A-T/LV control and ISG15 shRNA cells using the Miochondrial Isolation Kit (Thermo Scientific Company, 89874). The Dounce homogenization protocol described by the manufacturer was used to isolate mitochondria from cells. Mitochondrial pellets were resuspended in lysis buffer containing 50 mM Tris pH 7.5 and 4% (v/v) SDS. Samples were homogenized and boiled for 10 min. Lysates containing equal protein were then mixed with 6× Laemmli SDS sample buffer (3× final concentration). Samples were boiled again and mitochondrial proteins were analyzed by SDS-PAGE. Immunoblotting analyses using either anti-ISG15 (raised against human ISG15) (20), anti-ubiquitin (gift from Dr. Arthur Haas, at LSUHSC—New Orleans), or anti-mitofusin 2 (Abcam, ab88569) antibodies were carried out using the ECL Western procedure (Pierce, 34076) and the BioRad VersaDoc Imaging System (BioRad). Immunoblotting Analysis of HA Polyubiquitylated Proteins in Cells: Cells were transfected with HA-ubiquitin using the PolyFect transfection reagent (Qiagen, 301105). Twenty four hours after transfection, mitochondria were isolated as described above. Mitochondrial lysis, SDS-PAGE, and immunoblotting analysis to detect HA-ubiquitin conjugated proteins using anti-HA antibodies were carried out as described above. Immunoblotting Analysis of Mfn2 in Cells: Cells were lysed in lysis buffer containing 50 mM Tris-HCl, pH 7.5, 2% SDS, and protease inhibitor cocktail. Lysates were sonicated, boiled, and cleared by centrifugation. Lysates containing equal protein were then mixed with 6× Laemmli SDS sample buffer (3× final concentration). Samples were boiled again and proteins were separated by 15% SDS-PAGE. Immunoblotting analysis was carried out using anti-Mfn2 antibodies (Abcam) as described above. Intensity of the Mfn2 bands was quantitated using BioRad Quantity One software. Statistical analysis—Statistical analysis was carried out using GraphPad software.
Many outer mitochondrial membrane (OMM) proteins are ubiquitylated and degraded via the 26S proteasome prior to mitophagy in cells treated with the mitochondrial depolarizing agents (28,29). To test whether ISG15 inhibits polyubiquitylation of OMM proteins, we assessed the fate of Mfn2, an OMM protein and proteasome substrate, in A-T/LV-control and A-T/LV-ISG15-silenced cells treated with two different mitochondrial depolarizing agents, valinomycin and carbonylcyanide m-chlorophenylhydrazone (CCCP). Consistent with the literature reports (29,35,36), we observed a ladder of high molecular weight anti-Mfn2 cross-reactive bands above the 86 kDa Mfn2 protein band that is reminiscent of polyubiquitylation, in both ISG15-silenced and ISG15 overexpressing A-T cells (FIGS. 34 A and B, left panels). The endogenous level of these high molecular weight Mfn2 cross-reactive bands was remarkably higher in ISG15-silenced as compared to the ISG15-overexpressing A-T cells in the absence of any drugs (FIGS. 34A and B, first panels, compare lanes 1 and 4). […] In contrast, the level of these Mfn2 cross-reactive high molecular weight bands decreased under the same drug treatment conditions in ISG15-silenced A-T cells (FIGS. 34A and B, first panels, lanes 4-6, and the accompanying bar graph in the second panel for quantitation). […] The bar graphs in FIGS. 34A and B, third panels, show mean values of the ratio between free Mfn2 (86 kDa band) and actin proteins (±SEM) in CCCP-treated A-T/LV-control and ISG15 shRNA cells measured from eight independent experiments, and valinomycin-treated A-T/LV-control and ISG15 shRNA cells measured from three independent experiments respectively.

Row | Compound | free Mfn2 degradation in CCCP-treated cells
1 | CO/C1=C\C(C)=C\[C@@H](C)[C@@H](O)[C@@H](C)C/C(C)=C/C=C/[C@H](OC)[C@@H]([C@@H](C)[C@@H](O)[C@H](C)[C@@]2(O)C[C@@H](O)[C@H](C)[C@@H](C(C)C)O2)OC1=O [Bafilomycin A1] | not
2 | CC(C)C[C@@H](C=O)NC(=O)[C@H](CC(C)C)NC(=O)[C@H](CC(C)C)NC(=O)OCc1ccccc1 [MG132] (Cbz-Leu-Leu-Leu-aldehyde) | restored
